# Data: BindingDB's records for doi:10.1021/acs.jmedchem.0c00262 (University of Leeds, 2020)
# Experiments:
# [1] = Inhibition of GP6 in human whole blood assessed as protein-mediated platelet aggregation preincubated for 15 mins followed by collagen stimulation and measured for 10 mins by multiple electrode aggregometry
# Platelet glycoprotein VI = molecular target: T1, Platelet glycoprotein VI (Homo sapiens, UniProt Q9HCN6); assay: Inhibition of GP6 in human whole blood assessed as protein-mediated platelet aggregation preincubated for 15 mins followed by collagen stimulation and measured for 10 mins by multiple electrode aggregometry
# T1 sequence (Q9HCN6 whole entry): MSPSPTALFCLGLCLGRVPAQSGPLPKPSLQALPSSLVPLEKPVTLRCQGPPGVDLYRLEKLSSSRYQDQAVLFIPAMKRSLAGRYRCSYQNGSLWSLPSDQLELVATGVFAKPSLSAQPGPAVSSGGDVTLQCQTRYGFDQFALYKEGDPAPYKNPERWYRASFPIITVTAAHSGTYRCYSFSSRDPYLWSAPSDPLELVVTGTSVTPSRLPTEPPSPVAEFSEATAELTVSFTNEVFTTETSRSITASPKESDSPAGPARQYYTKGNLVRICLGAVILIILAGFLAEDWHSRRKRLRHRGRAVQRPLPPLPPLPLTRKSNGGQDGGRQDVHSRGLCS
# [2] = Antagonist activity at GP6 in human platelet assessed as reduction in collagen-induced platelet-aggregation preincubated for 10 mins followed by collagen stimulation by aggregometry
# [3] = Antagonist activity at GP6 in human platelet assessed as reduction in CRP-induced platelet-aggregation preincubated for 10 mins followed by collagen stimulation by aggregometry
# [4] = Modulation of GP6 in human platelets reduction in collagen-induced platelet aggregation preincubated for 20 mins followed by collagen stimulation
# [5] = Modulation of GP6 in human platelets assessed as reduction in convulxin-induced platelet aggregation
structure (smiles),measurement,setting,value
C=CC(=O)N1CCC[C@@H](n2nc(-c3ccc(Oc4ccccc4)cc3)c3c(N)ncnc32)C1 [IBRUTINIB],IC50,[1],120 nM
C/C=C/C(=O)N1CCC[C@H]1c1nc(-c2ccc(C(=O)Nc3ccccn3)cc2)c2c(N)nccn12 [ACP-196],IC50,Platelet glycoprotein VI,1210 nM
"C=CC(=O)N1CCC(CNc2ncnc(N)c2-c2ccc(Oc3ccccc3)cc2)CC1 [US9580449, Example A39]",IC50,[1],5840 nM
"CC#CC(=O)N1CC[C@@H](n2c(=O)n(-c3ccc(Oc4ccccc4)cc3)c3c(N)ncnc32)C1 [US9199997, 9]",IC50,[1],1200 nM
C=C1C(=O)[C@@]23[C@H](O)C[C@@H]4C(C)(C)C(=O)CC[C@@]4(C)[C@@H]2CC[C@@H]1[C@H]3O [Glaucocalyxin A],IC50,[2],21 nM
same,IC50,[3],2 nM
"C=CC(=O)N1CCC([C@@H]2CCNc3c(C(N)=O)c(-c4ccc(Oc5ccccc5)cc4)nn32)CC1 (single isomer, unassigned) [US9447106, 27b (peak 2)]",IC50,[1],510 nM
Cc1cccc(Nc2nc(N[C@@H]3CCCC[C@@H]3N)ncc2C(N)=O)c1,IC50,[4],570 nM
same,IC50,[5],31 nM
